In ChEMBL document CHEMBL1146864, “Aryloxyethylamines: binding at alpha7 nicotinic acetylcholine receptors” (Bioorg Med Chem Lett, 2006):

What was measured:
[1] = target: Neuronal acetylcholine receptor subunit alpha-7 (Rattus norvegicus, UniProt Q05941); experiment: Displacement of [125I]iodo-MLA from alpha-7 nAChR in rat cerebral cortex; format: tissue-based
[2] = Selectivity for alpha-7 over alpha4beta2

Neuronal acetylcholine receptor subunit alpha-7, sequence (Q05941 whole entry): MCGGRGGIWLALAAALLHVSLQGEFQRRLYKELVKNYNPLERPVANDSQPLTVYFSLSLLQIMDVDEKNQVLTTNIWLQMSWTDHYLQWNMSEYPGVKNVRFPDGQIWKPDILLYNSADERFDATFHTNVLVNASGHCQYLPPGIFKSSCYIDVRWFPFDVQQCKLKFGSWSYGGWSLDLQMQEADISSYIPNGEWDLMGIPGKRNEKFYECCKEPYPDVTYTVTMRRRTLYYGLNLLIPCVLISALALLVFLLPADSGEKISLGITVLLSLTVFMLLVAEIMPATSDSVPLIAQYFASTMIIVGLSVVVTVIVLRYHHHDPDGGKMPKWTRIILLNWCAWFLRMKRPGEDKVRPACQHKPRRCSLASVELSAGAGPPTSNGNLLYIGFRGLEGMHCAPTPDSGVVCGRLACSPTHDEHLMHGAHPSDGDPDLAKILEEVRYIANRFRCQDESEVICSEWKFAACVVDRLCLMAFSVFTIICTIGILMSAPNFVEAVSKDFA

Structure (SMILES) | Ki [1] [µM] | Selectivity ratio [2]
CN(C)CCOc1ccc(CCc2ccccc2)cc1 | > 10 | –
CNC/C=C/c1cccnc1 | > 10 | –
CN(C)CCOc1ccc(/C=C/c2ccccc2)nc1 | > 10 | –
CN1CCCC1c1ccc(CCc2ccccc2)nc1 (racemic) | > 10 | –
C[N+](C)(C)CCOc1ccccc1 | 1.1 | –
CN(C)CCOc1ccccc1 | > 10 | –
CN(C)CCOc1cccnc1 | > 10 | –
CNC/C=C\c1cccnc1 | > 10 | –
CCN(C)CCOc1cccnc1 | > 10 | –
C[N+](C)(C)CCCOc1cccnc1 | > 10 | –
C[N+](C)(C)CCOc1ccc(/C=C/c2ccccc2)nc1 | 1.25 | –
C[N+](C)(C)CCOc1ccc(CCc2ccccc2)cc1 | 7.5 | –
CNCCOc1cccnc1 | > 10 | –
C[N+](C)(C)CCOc1cccnc1 | 0.28 | 560
CNCCCc1cccnc1 | > 10 | –
CN(C)CCOc1ccc(/C=C/c2ccccc2)cc1 | > 10 | –
CN(C)CCOc1ccc(CCc2ccccc2)nc1 | > 10 | –
C[N+](C)(C)CCOc1ccc(CCc2ccccc2)nc1 | 4.32 | –
C[N+](C)(C)CCOc1ccc(/C=C/c2ccccc2)cc1 | 2.17 | –
